Results published in patent publication US20210009564A1, “CALPAIN MODULATORS AND THERAPEUTIC USES THEREOF” (BLADE THERAPERTICS, INC., priority 2018, published 2021).

Key:
Human Calpain 2/NS1 = molecular target: T1, Human Calpain 2/NS1 (Homo sapiens, UniProt P17655); experiment: Calpain inhibition, continuous fluorescence (FRET substrate) assay, calpain 2; format: biochemical; conditions: SensoLyte 520 FRET substrate, 25C
T1 sequence (P17655 1-700): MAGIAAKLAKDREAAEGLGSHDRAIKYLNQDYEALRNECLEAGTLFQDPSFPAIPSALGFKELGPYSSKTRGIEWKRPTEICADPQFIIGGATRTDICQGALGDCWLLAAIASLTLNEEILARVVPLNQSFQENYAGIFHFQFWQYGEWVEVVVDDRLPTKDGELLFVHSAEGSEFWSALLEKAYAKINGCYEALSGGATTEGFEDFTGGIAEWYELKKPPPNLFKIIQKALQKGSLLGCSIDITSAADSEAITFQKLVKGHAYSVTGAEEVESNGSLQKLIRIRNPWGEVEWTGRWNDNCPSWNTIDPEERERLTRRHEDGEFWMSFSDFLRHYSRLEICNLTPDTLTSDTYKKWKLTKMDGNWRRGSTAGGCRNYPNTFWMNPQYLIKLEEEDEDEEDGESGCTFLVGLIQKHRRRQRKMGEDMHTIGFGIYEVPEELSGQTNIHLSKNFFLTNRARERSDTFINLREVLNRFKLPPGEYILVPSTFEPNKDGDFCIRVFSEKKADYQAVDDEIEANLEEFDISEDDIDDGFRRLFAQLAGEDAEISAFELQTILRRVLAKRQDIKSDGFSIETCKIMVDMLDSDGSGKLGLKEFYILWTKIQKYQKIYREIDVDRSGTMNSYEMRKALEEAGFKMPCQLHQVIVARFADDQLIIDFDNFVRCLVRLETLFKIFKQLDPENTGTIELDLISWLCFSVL
T1 sequence (P04632 1-268 partner): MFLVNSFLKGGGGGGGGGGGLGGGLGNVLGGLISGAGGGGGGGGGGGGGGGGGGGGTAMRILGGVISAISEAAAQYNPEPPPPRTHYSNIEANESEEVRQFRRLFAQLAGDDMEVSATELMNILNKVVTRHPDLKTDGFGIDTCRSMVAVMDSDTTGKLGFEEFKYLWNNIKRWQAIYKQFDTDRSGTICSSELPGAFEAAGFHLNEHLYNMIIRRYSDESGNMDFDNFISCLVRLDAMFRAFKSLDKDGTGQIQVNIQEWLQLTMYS
In short: (§1)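 Calpains preincubated with serially diluted inhibitors at 25 °C in 50 mM Tris pH 7.5, 100 mM NaCl, 1 mM DTT; CaCl2 plus 5-FAM/QXL 520 FRET substrate started the reaction. Fluorescence (490/520 nm) read 10 min; rates from 1-5 min slopes, IC50 from 4-parameter logistic fit.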

Human Calpain 9/NS1 = molecular target: T2, Human Calpain 9/NS1 (Homo sapiens, UniProt O14815); experiment: Calpain inhibition, continuous fluorescence (FRET substrate) assay, calpain 9; format: biochemical; conditions: SensoLyte 520 FRET substrate, 25C
T2 sequence (O14815 1-690): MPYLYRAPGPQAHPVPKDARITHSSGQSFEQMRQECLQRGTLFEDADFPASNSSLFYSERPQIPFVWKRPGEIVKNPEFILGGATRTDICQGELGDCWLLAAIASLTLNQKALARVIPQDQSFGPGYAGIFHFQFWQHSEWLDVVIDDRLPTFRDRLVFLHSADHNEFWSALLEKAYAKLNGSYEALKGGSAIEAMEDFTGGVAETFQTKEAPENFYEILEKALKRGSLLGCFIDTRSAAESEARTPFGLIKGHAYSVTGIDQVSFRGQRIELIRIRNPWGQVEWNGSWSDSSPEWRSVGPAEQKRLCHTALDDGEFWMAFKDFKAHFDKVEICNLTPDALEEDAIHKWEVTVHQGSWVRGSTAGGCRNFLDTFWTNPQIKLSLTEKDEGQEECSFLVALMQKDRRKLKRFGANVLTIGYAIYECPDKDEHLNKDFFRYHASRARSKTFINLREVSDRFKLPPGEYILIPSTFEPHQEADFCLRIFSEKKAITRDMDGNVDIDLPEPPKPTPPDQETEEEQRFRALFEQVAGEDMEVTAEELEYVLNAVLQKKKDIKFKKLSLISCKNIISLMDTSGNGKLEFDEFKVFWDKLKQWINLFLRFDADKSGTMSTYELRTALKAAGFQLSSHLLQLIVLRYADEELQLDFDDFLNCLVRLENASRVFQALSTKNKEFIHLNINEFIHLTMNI
T2 sequence (P04632 1-268 partner): T1 sequence (P04632 1-268 partner)
In short: as §1

[1] = tested on: Calpain activity in SH-SY5Y cells; experiment: SH-SY5Y spectrin breakdown product (SBDP-150) western blot assay; format: cell-based; conditions: Homo sapiens; SH-SY5Y cells, 25 uM A23187, SBDP-150 western blot; read-out: SH-SY5Y Spectrin IC50
[2] = tested on: Calpain activity in SH-SY5Y cells; experiment: SH-SY5Y Suc-LLVY-AMC fluorescence assay; format: cell-based; conditions: Homo sapiens; SH-SY5Y cells, 100 uM Suc-LLVY-AMC; read-out: SH-SY5Y + AMC IC50
Human Calpain 1/NS1 = molecular target: T3, Human Calpain 1/NS1 (Homo sapiens, UniProt P07384); experiment: Calpain inhibition, continuous fluorescence (FRET substrate) assay, calpain 1; format: biochemical; conditions: SensoLyte 520 FRET substrate, 25C
T3 sequence (P07384 1-714): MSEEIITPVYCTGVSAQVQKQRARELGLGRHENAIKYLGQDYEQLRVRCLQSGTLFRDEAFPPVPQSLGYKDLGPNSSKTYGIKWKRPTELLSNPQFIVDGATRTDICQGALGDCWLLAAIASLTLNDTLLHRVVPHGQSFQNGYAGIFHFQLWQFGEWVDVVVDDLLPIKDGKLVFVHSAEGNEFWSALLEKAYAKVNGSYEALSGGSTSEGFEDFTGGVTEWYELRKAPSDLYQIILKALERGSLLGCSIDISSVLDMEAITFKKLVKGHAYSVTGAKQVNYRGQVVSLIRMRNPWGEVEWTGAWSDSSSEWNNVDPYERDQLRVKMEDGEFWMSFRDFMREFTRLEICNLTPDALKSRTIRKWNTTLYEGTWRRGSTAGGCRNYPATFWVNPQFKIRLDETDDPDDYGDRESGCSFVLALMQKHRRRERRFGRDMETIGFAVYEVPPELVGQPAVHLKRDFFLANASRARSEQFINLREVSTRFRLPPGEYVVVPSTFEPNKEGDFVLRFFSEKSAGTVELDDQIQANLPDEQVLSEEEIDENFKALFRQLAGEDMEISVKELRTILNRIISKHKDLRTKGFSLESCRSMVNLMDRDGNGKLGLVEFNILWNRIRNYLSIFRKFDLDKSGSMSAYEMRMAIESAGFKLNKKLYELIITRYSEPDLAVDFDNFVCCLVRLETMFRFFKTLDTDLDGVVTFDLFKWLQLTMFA
T3 sequence (P04632 1-268 partner): T1 sequence (P04632 1-268 partner)
In short: as §1

Compound	IC50 (Human Calpain 2/NS1) [µM]	IC50 (Human Calpain 9/NS1) [µM]	IC50 [1] [µM]	IC50 [2] [µM]	IC50 (Human Calpain 1/NS1) [µM]
Cc1nc(-c2ccccc2F)c(C(=O)NC(Cc2ccccc2)C(=O)C(=O)O)o1 (centres unmarked) [Compound 64, 3-(4-(2-FLUOROPHENYL)-2-METHYLOXAZOLE-5-CARBOXAMIDO)-2-OXO-4-PHENYLBUTANOIC ACID]	< 3	< 3	> 25	< 10	< 3
Cn1cc(C(=O)NC(Cc2ccccc2)C(=O)C(=O)O)c(-c2ccccc2F)n1 (centres unmarked) [Compound 65, 3-(3-(2-FLUOROPHENYL)-1-METHYL-1H-PYRAZOLE-4-CARBOXAMIDO)-2-OXO-4-PHENYLBUTANOIC ACID]	< 3	< 3	> 25	< 10	< 3
O=C(O)C(=O)C(Cc1ccccc1)NC(=O)c1nsnc1-c1ccccc1 (centres unmarked) [Compound 67, 2-OXO-4-PHENYL-3-(4-PHENYL-1,2,5-THIADIAZOLE-3-CARBOXAMIDO)BUTANOIC ACID]	< 3	< 3	< 10	< 10	< 3
Cn1cc(C(=O)NC(Cc2ccccc2)C(=O)C(N)=O)c(-c2cccc3ocnc23)n1 (centres unmarked) [Compound 68, N-(4-AMINO-3,4-DIOXO-1-PHENYLBUTAN-2-YL)-3-(BENZO[D]OXAZOL-4-YL)-1-METHYL-1H-PYRAZOLE-4-CARBOXAMIDE]	< 3	< 3	10 to 25	< 10	< 3
Cn1cc(C(=O)NC(Cc2ccccc2)C(=O)C(N)=O)c(-c2cccc3nn(C)cc23)n1 (centres unmarked) [Compound 69, N-(4-AMINO-3,4-DIOXO-1-PHENYLBUTAN-2-YL)-1-METHYL-3-(2-METHYL-2H-INDAZOL-4-YL)-1H-PYRAZOLE-4-CARBOXAMIDE]	< 3	< 3	10 to 25	10 to 25	< 3
NC(=O)C(=O)C(Cc1ccccc1)NC(=O)c1cn(C(F)F)nc1-c1cccc2scnc12 (centres unmarked) [Compound 70, N-(4-AMINO-3,4-DIOXO-1-PHENYLBUTAN-2-YL)-3-(BENZO[D]THIAZOL-4-YL)-1-(DIFLUOROMETHYL)-1H-PYRAZOLE-4-CARBOXAMIDE]	< 3	< 3	< 10	< 10	< 3
NC(=O)C(=O)C(Cc1ccccc1)NC(=O)c1cn(C(F)F)nc1-c1cccc2ocnc12 (centres unmarked) [Compound 71, N-(4-AMINO-3,4-DIOXO-1-PHENYLBUTAN-2-YL)-3-(BENZO[D]OXAZOL-4-YL)-1-(DIFLUOROMETHYL)-1H-PYRAZOLE-4-CARBOXAMIDE]	< 3	< 3	< 10	< 10	< 3
Cn1cc(C(=O)NC(Cc2ccccc2)C(=O)C(=O)O)c(-c2cccc(F)c2)n1 (centres unmarked) [Compound 72, 3-(3-(3-FLUOROPHENYL)-1-METHYL-1H-PYRAZOLE-4-CARBOXAMIDO)-2-OXO-4-PHENYLBUTANOIC ACID]	< 3	< 3	> 25	< 10	< 3
Cc1cc(-c2nc(C)oc2C(=O)NC(Cc2ccccc2)C(=O)C(N)=O)c(C)o1 (centres unmarked) [Compound 78, N-(4-AMINO-3,4-DIOXO-1-PHENYLBUTAN-2-YL)-4-(2,5-DIMETHYLFURAN-3-YL)-2-METHYLOXAZOLE-5-CARBOXAMIDE]	< 3	< 3	10 to 25	< 10	< 3
NC(=O)C(=O)C(Cc1ccccc1)NC(=O)c1nsnc1-c1ccoc1Cl (centres unmarked) [Compound 79, N-(4-AMINO-3,4-DIOXO-1-PHENYLBUTAN-2-YL)-4-(2-CHLOROFURAN-3-YL)-1,2,5-THIADIAZOLE-3-CARBOXAMIDE]	< 3	< 3	< 10	< 10	< 3
Cc1nc(-c2ccccc2F)c(C(=O)NC(Cc2ccccc2F)C(=O)C(N)=O)o1 (centres unmarked) [Compound 80, N-(4-AMINO-1-(2-FLUOROPHENYL)-3,4-DIOXOBUTAN-2-YL)-4-(2-FLUOROPHENYL)-2-METHYLOXAZOLE-5-CARBOXAMIDE]	< 3	< 3	< 10	< 10	< 3
Cc1nc(-c2cc(Cl)oc2Cl)c(C(=O)NC(Cc2ccccc2)C(=O)C(N)=O)o1 (centres unmarked) [Compound 81, N-(4-AMINO-3,4-DIOXO-1-PHENYLBUTAN-2-YL)-4-(2,5-DICHLOROFURAN-3-YL)-2-METHYLOXAZOLE-5-CARBOXAMIDE]	< 3	< 3	10 to 25	< 10	< 3
N#CC(Cc1ccccc1)NC(=O)c1nsnc1-c1ccccc1 (centres unmarked) [Compound 82, N-(1-CYANO-2-PHENYLETHYL)-4-PHENYL-1,2,5-THIADIAZOLE-3-CARBOXAMIDE]	> 10	> 10	> 25	> 25	> 10
Cc1nc(-c2ccccc2F)c(C(=O)NC(Cc2ccccc2Cl)C(=O)C(N)=O)o1 (centres unmarked) [Compound 83, N-(4-AMINO-1-(2-CHLOROPHENYL)-3,4-DIOXOBUTAN-2-YL)-4-(2-FLUOROPHENYL)-2-METHYLOXAZOLE-5-CARBOXAMIDE]	< 3	< 3	> 25	< 10	< 3
Cc1nc(-c2ccoc2C)c(C(=O)NC(Cc2ccccc2)C(=O)C(N)=O)o1 (centres unmarked) [Compound 84, N-(4-AMINO-3,4-DIOXO-1-PHENYLBUTAN-2-YL)-2-METHYL-4-(2-METHYLFURAN-3-YL)OXAZOLE-5-CARBOXAMIDE]	< 3	< 3	10 to 25	< 10	< 3
O=C(NC(Cc1ccccc1)C(=O)c1ncco1)c1nsnc1-c1ccccc1 (centres unmarked) [Compound 85, N-(1-(OXAZOL-2-YL)-1-OXO-3-PHENYLPROPAN-2-YL)-4-PHENYL-1,2,5-THIADIAZOLE-3-CARBOXAMIDE]	> 10	> 10	> 25	< 10	> 10
